The source of these data is US20070032477A1, “Pteridine derivatives useful for making pharmaceutical compositions” (priority 2003, published 2007).

For assay [1], the system named is TNBS-induced colitis in C57 BL/6 mice. Nature of the assay: Trinitrobenzenesulfonate-induced colitis test in mice (Example 209). Format: in vivo. The protocol: C57 BL/6 mice (4-5 weeks) were obtained from M&B (Denmark), bred under standard pathogen-free conditions and maintained in the certified animal facility of the University Hospital Gasthuisberg, Catholic University of Leuven (Belgium). Experiments were approved by the local Ethical Committee of Animal Experimentation. Mice were sensitized twice 10 days and 5 days before rectal challenge. For sensitization, a 2×2 cm field of the abdominal skin was shaved, and 100 μl of 5 mg trinitrobenzenesulfonate (hereinafter referred as TNBS) in 50% ethanol solution was applied. On the day of challenge, mice were first lightly anesthetized with metofane. Subsequently TNBS (1 mg in 50% ethanol) was administered per rectum via a round-tip needle equipped with a 1-ml syringe. The tip of the needle was inserted so that the tip was about 3.5 to 4 cm proximal to the anal verge and TNBS was injected with a total volume of 100 μl. To ensure distribution of TNBS within the entire colon and cecum, mice were held in a vertical position for 1 minute after the injection.
The compound of example 176 (2-amino-6-(3,4-dimethoxyphenyl)-4-[N-(4-methyl-phenyl)-piperazin-1-yl]pteridine) was given to the mice by daily gavage at the dose of 20 mg/kg (400 μg in 100 μl H2O). Control mice were treated with 100 μl H2O only. Body weights of all animals were recorded daily in order to follow the development of inflammatory colitis over a period of 10 days.
Both macroscopic and microscopic histology evaluations were performed as follows. Mice were sacrificed at day 2 by cervical […], the colon was excised and was immediately examined visually, and damage was scored on a 0-12 scale. Colon sections were then fixed in 6% formalin and embedded in paraffin, cut into sections, and then stained with hematoxylin and eosin. Stained sections were examined for evidence of colitis using as criteria the presence of cell infiltration, elongation and/or distortion of crypts, crypt abscesses, reduction in goblet cell number, frank ulceration, and oedema formation.
MPO activity was measured as follows. Two days after intracolonic injection of TNBS, 50 mg colon was removed, homogenised and sonicated on ice. Samples were frozen in liquid nitrogen and subsequently thawed in a water bath at 37° C., each step lasted 3 minutes and the procedure was repeated for two cycles. After centrifugation, an aliquot of the supernatant was then allowed to react with a solution of tetra-methyl-benzidine (1.6 mM) and 0.1 mM H2O2. The rate of change in absorbance was measured spectrophotometrically at 460 nm. MPO activity was defined as the quantity of enzyme degrading 1 μmole of peroxide/minute at 37° C. and was expressed in units per gram weight of wet tissue. Sample enzyme activity was measured from a standard curve of known MPO unit activity (assay sensitivity 5×10^−7 units per well).
Quantitative Reverse Transcriptase (RT)-PCR for cytokine mRNA was performed as follows: part of the colon tissues, removed on day 2 after TNBS application, was immediately frozen in liquid nitrogen after dissection and stored at −70° C. until extraction of total RNA using a method well known in the art. A constant amount of 1 μg of total RNA was used for oligo-(dT)-primed cDNA synthesis (Ready-to-go-kit, commercially available from Pharmacia, Sweden). After 90 minutes at 37° C., the reverse transcriptase was inactivated by incubating the cDNA samples for 5 minutes at 95° C. The amount of cDNA was quantified by real-time RT-PCR using specific primers for β-actin and TNF, with the ABI Prism 7700 Sequence Detectin System (SDS) commercially available from Applied Biosystems (California). PCR was performed in a total volume of 25 μl, containing 5 μl cDNA and 20 μl mix with the TaqMan® Universal PCR Master Mix (2×) (Applied Biosystems) combined with 300 nM of the primer and 100 nM of the probe. […]

For assay [2], the system named is LPS-induced shock in C3H mice. Kind of assay: Model of protection against septic shock (LPS). Format: in vivo. Conditions: 100 μg LPS i.p., 20 mg/kg/day i.p. at time of injection and 24 hours later. As to the method: As a control group, 4 sham treated (saline injection) C3H mice being injected intraperitoneously with 100 μg lipopolysaccharide (hereinafter LPS) per mouse, all died within 1 to 3 days after injection.

The mark [3] stands for this setting: daily gavage 20 mg/kg, versus control mice.

Each structure is given as a SMILES string.

Turning to `COc1ccc(-c2cnc3nc(N)nc(N4CCN(c5ccc(C)cc5)CC4)c3n2)cc1OC` [Example 176, 2-amino-6-(3,4-dimethoxyphenyl)-4-((4-methylphenyl)-piperazin-1-yl)pteridine], the “recovery of original body weight earlier than control mice” value in assay [1] (daily gavage 20 mg/kg) was “at least 4 days”. Besides, the microscopic score in assay [1] (daily gavage 20 mg/kg, day 2) was determined as 5.7±0.6. In assay [1] (daily gavage 20 mg/kg, day 2, 0-12 scale), this compound yielded an average macroscopic score of 6.2±0.4. The “tissue MPO activity in colon” value in assay [1] (daily gavage 20 mg/kg, two days after TNBS) amounted to 6.7±1.4 U/g. Also, in assay [1] (setting [3]), the “decrease of tissue MPO activity” value amounted to 2 fold and the “reduction in average macroscopic score” value was found to be 30%. Moreover, in assay [1] (day 2, compared to control mice), the “mRNA for other cytokines (IFN-γ and IL-18) in colon” value is reported as “no difference”. Besides, the “cytokine mRNA level for TNF in colon” value in assay [1] (day 2, ratio to β-actin multiplied by 10^6) is 18.1±8.5. Further, in assay [1] (serum day 10, compared to control mice), the “Anti-TNBS antibody (IgG1 and IgG2a) levels” value is “similar”.
For the compound `COc1ccc(-c2cnc3nc(N)nc(N4CCN(C(=O)COc5ccccc5)CC4)c3n2)cc1OC` [Example 17, 2-amino-4-[(N-phenoxyacetyl)-piperazin-1-yl]-6-(3,4-dimethoxy-phenyl)pteridine], the “protection from acute shock related mortality” value in assay [2] is given as “all mice were protected from acute shock related mortality”.
